Data taken from ChEMBL document CHEMBL4706719, “Androgen Receptor Degradation for Therapeutic Intervention of Prostate Cancer Drug Resistance” (ACS Med Chem Lett, 2021).

Each molecule was assayed against Androgen receptor (Homo sapiens) (UniProt P10275) (assay: In vivo inhibition of AR in castrated CB17 mouse xenografted with human VCaP cells at 10 mg/kg, po via gavage measured after 16 hrs by ELISA relative to control).

With `CC1(C)[C@H](NC(=O)c2ccc(N3CCC(CN4CCN(c5cc6c(cc5F)C(=O)N(C5CCC(=O)NC5=O)C6=O)CC4)CC3)c(F)c2)C(C)(C)[C@H]1Oc1ccc(C#N)c(Cl)c1` (stereo partly specified) as the molecule, how does the inhibition read?
Its inhibition is greater than 50%.

For `CC(C)N(CC1CCN(c2ccc(C(=O)N[C@H]3C(C)(C)[C@H](Oc4ccc(C#N)c(Cl)c4)C3(C)C)cc2)CC1)[C@H]1C[C@H](Oc2ccc3c(c2)C(=O)N(C2CCC(=O)NC2=O)C3=O)C1` (stereo partly specified), which inhibition is on record?
The inhibition was greater than 50%.

For `CC1(C)[C@H](NC(=O)c2ccc(N3CCN(CCCOc4ccc5c(c4)C(=O)N(C4CCC(=O)NC4=O)C5=O)CC3)cc2)C(C)(C)[C@H]1Oc1ccc(C#N)c(Cl)c1` (stereo partly specified), which inhibition is on record?
Its inhibition is greater than 50%.

With `CC1(C)[C@H](NC(=O)c2ccc(N3CCC(CN4CCN(c5ccc6c(c5F)C(=O)N(C5CCC(=O)NC5=O)C6=O)CC4)CC3)cc2)C(C)(C)[C@H]1Oc1ccc(C#N)c(Cl)c1` (stereo partly specified) as the molecule, how does the inhibition read?
Its inhibition is greater than 50%.

For `CC1(C)[C@H](NC(=O)c2cc(F)c(CCOCCCN3CCN(c4ccc5c(c4)C(=O)N(C4CCC(=O)NC4=O)C5=O)CC3)c(F)c2)C(C)(C)[C@H]1Oc1ccc(C#N)c(Cl)c1` (stereo partly specified), which inhibition is on record?
Its inhibition is less than 50%.

With `CC1(C)[C@H](NC(=O)c2ccc(N3CCN(CCCCCOc4ccc5c(c4)C(=O)N([C@H]4CCC(=O)NC4=O)C5=O)CC3)nc2)C(C)(C)[C@H]1Oc1ccc(C#N)c(Cl)c1` as the molecule, how does the inhibition read?
Its inhibition is greater than 50%.

Which inhibition does the source give for `CC1(C)[C@H](NC(=O)c2ccc(N3CCC(CN4CCN(c5cc6c(cc5F)C(=O)N(C5CCC(=O)NC5=O)C6=O)CC4)CC3)nn2)C(C)(C)[C@H]1Oc1ccc(C#N)c(Cl)c1` (stereo partly specified) here?
Its inhibition is greater than 50%.

How did the inhibition turn out when `CC1(C)[C@H](NC(=O)c2ccc(CCN3CCN(c4ccc5c(c4)C(=O)N(C4CCC(=O)NC4=O)C5=O)CC3)cc2)C(C)(C)[C@H]1Oc1ccc(C#N)c(Cl)c1` (stereo partly specified) was run?
Its inhibition is greater than 50%.

For `CC1(C)[C@H](NC(=O)c2cnc(N3CCN(CCCOc4ccc5c(c4)C(=O)N(C4CCC(=O)NC4=O)C5=O)CC3)cn2)C(C)(C)[C@H]1Oc1ccc(C#N)c(Cl)c1` (stereo partly specified), which inhibition is on record?
Its inhibition is greater than 50%.

With `CC1(C)[C@H](NC(=O)c2ccc(N3CCN(CCCCCOc4ccc5c(c4)C(=O)N(C4CCC(=O)NC4=O)C5=O)CC3)nc2)C(C)(C)[C@H]1Oc1ccc(C#N)c(C#N)c1` (stereo partly specified) as the molecule, how does the inhibition read?
Its inhibition is greater than 50%.

`CC1(C)[C@H](NC(=O)c2ccc(N3CCC(CN4CCN(c5ccc6c(c5)C(=O)N(C5CCC(=O)NC5=O)C6=O)CC4)CC3)nn2)C(C)(C)[C@H]1Oc1ccc(C#N)c(Cl)c1` (stereo partly specified) was tested. Which inhibition did it give?
The inhibition was less than 50%.
